# Measurements from patent US10538555B2, “Macrocyclic inhibitors of the PD-1/PD-L1 and CD80(B7-1)/PD-L1 protein/protein interactions” (BRISTOL-MYERS SQUIBB COMPANY, priority 2014, dated 2020).
# *1 amine or outer side, *2 acyl side, *3 side chain or, on linkers, in order; H or OH if unused. Where a SMILES comes first, the peptide text is derived from it. Bridges are numbered along the chain shown (N, C = ends). [ ]: non-standard residue; d: D form. ξ: configuration not given here. X3 = O=C(C[C@@H](CO)C(=O)[*:2])[C@H](Cc1c[nH]c2ccccc12)N[*:1]; Lac(3-(indol-3-yl)) = O=C(O)[C@@H](O)Cc1c[nH]c2ccccc12; X2 = NC(=O)C[C@H](N[*:1])C(=O)C1CCC[C@H]1C(=O)[*:2]; Phe(3,4,5-F3) = N[C@@H](Cc1cc(F)c(F)c(F)c1)C(=O)O; NMePhe(4-Me) = CN[C@@H](Cc1ccc(C)cc1)C(=O)O; NMePhe(4-F) = CN[C@@H](Cc1ccc(F)cc1)C(=O)O; Phe(4-F) = N[C@@H](Cc1ccc(F)cc1)C(=O)O; Bta = N[C@@H](Cc1csc2ccccc12)C(=O)O; Hyp = O=C(O)[C@@H]1C[C@@H](O)CN1; NMeF = CN[C@@H](Cc1ccccc1)C(=O)O; dHyp = O=C(O)[C@H]1C[C@H](O)CN1; NMeNle = CCCC[C@H](NC)C(=O)O; dNle = CCCC[C@@H](N)C(=O)O; NMeA = CN[C@@H](C)C(=O)O; Orn = NCCC[C@H](N)C(=O)O; Dab = NCC[C@H](N)C(=O)O; ξC = NC(CS)C(=O)O
# Target: T1, Human PD-L1/PD-1 (Homo sapiens, UniProt Q9NZQ7)
# T1 construct: TVMV protease cleavage site (C); made in house; host or cells: HEK293T cells
# T1 sequence (Q9NZQ7 with tags, fused parts or gaps): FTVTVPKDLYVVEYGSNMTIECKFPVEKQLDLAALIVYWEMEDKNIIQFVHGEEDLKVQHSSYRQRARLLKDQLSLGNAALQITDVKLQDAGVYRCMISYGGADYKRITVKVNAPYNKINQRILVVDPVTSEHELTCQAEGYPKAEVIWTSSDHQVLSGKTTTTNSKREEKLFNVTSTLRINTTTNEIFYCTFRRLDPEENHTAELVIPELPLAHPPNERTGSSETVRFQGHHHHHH
# Experiment: HTRF Human PD-L1/PD-1 binding assay (PD-1-Ig/PD-L1-His)
# Settings: PD-L1-His 10 nM, PD-1-Ig 20 nM; class symbol; read-out: HTRF Human PD-L1/PD-1 Binding Assay IC50 Range
# In short: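 HTRF read-out (665/620 nm ratio) after 30 min equilibration with Eu-cryptate anti-Ig mAb (1 nM) and APC anti-His mAb (20 nM). Peptides preincubated 15 min with PD-L1-His (10 nM), then PD-1-Ig (20 nM) added for 15 min.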
row,IC50 [nM],SMILES
1,100 to 990,CCCC[C@H]1C(=O)N2CCC[C@@H]2C(=O)N[C@@H](CC(=O)O)C(=O)N[C@@H](C(C)C)C(=O)N(C)[C@@H](Cc2ccc(C)cc2)C(=O)N[C@@H](CCCN)C(=O)N2CCC[C@@H]2C(=O)N[C@@H](Cc2c[nH]c3ccccc23)C(=O)N[C@@H](Cc2ccc(O)cc2)C(=O)N[C@@H](CC(C)C)C(=O)N[C@H](C(=O)NCC(N)=O)CSCC(=O)N[C@@H](Cc2ccc(F)cc2)C(=O)N(C)[C@@H](Cc2ccccc2)C(=O)N1C [Example 10112] ({CH2CO}-[Phe(4-F)][NMeF][NMeNle][dP]DV[NMePhe(4-Me)][Orn][dP]WYLCG-NH2; thioether N-13)
2,100 to 990,CCCC[C@H]1C(=O)N2CCC[C@@H]2C(=O)N[C@@H](CC(=O)O)C(=O)N[C@@H](C(C)C)C(=O)N(C)[C@@H](Cc2ccc(C)cc2)C(=O)N[C@@H](CCN)C(=O)N2CCC[C@@H]2C(=O)N[C@@H](Cc2c[nH]c3ccccc23)C(=O)N[C@@H](Cc2ccc(O)cc2)C(=O)N[C@@H](CC(C)C)C(=O)N[C@H](C(=O)NCC(N)=O)CSCC(=O)N[C@@H](Cc2ccc(F)cc2)C(=O)N(C)[C@@H](Cc2ccccc2)C(=O)N1C [Example 10113] ({CH2CO}-[Phe(4-F)][NMeF][NMeNle][dP]DV[NMePhe(4-Me)][Dab][dP]WYLCG-NH2; thioether N-13)
3,100 to 990,CCCC[C@H]1C(=O)N2CCC[C@@H]2C(=O)N[C@@H](CC(=O)O)C(=O)N[C@@H](C(C)C)C(=O)N(C)[C@@H](Cc2ccc(C)cc2)C(=O)N[C@@H](CC(=O)O)C(=O)N2CCC[C@@H]2C(=O)N[C@@H](Cc2c[nH]c3ccccc23)C(=O)N[C@@H](Cc2ccc(O)cc2)C(=O)N[C@@H](CC(C)C)C(=O)N[C@H](C(=O)NCC(N)=O)CSCC(=O)N[C@@H](Cc2ccc(F)cc2)C(=O)N(C)[C@@H](Cc2ccccc2)C(=O)N1C [Example 10114] ({CH2CO}-[Phe(4-F)][NMeF][NMeNle][dP]DV[NMePhe(4-Me)]D[dP]WYLCG-NH2; thioether N-13)
4,100 to 990,CCCC[C@H]1C(=O)N2CCC[C@@H]2C(=O)N[C@@H](CC(=O)O)C(=O)N[C@@H](C(C)C)C(=O)N(C)[C@@H](Cc2ccc(C)cc2)C(=O)N[C@@H](CCC(=O)O)C(=O)N2CCC[C@@H]2C(=O)N[C@@H](Cc2c[nH]c3ccccc23)C(=O)N[C@@H](Cc2ccc(O)cc2)C(=O)N[C@@H](CC(C)C)C(=O)N[C@H](C(=O)NCC(N)=O)CSCC(=O)N[C@@H](Cc2ccc(F)cc2)C(=O)N(C)[C@@H](Cc2ccccc2)C(=O)N1C [Example 10115] ({CH2CO}-[Phe(4-F)][NMeF][NMeNle][dP]DV[NMePhe(4-Me)]E[dP]WYLCG-NH2; thioether N-13)
5,1 to 9.9,"CCCC[C@H]1C(=O)N2C[C@@H](O)C[C@@H]2C(=O)N[C@@H](CC(=O)O)C(=O)N[C@@H](C(C)C)C(=O)N(C)[C@@H](Cc2ccc(F)cc2)C(=O)N[C@@H](CCC(=O)O)C(=O)N2CCC[C@@H]2C(=O)N[C@@H](Cc2c[nH]c3ccccc23)C(=O)N[C@@H](Cc2ccc(O)cc2)C(=O)N[C@@H](CC(C)C)C(=O)N[C@H](C(=O)NCC(N)=O)CSCC(=O)N[C@@H](Cc2cc(F)c(F)c(F)c2)C(=O)N(C)[C@@H](Cc2ccccc2)C(=O)N1C [Example 10116] ({CH2CO}-[Phe(3,4,5-F3)][NMeF][NMeNle][dHyp]DV[NMePhe(4-F)]E[dP]WYLCG-NH2; thioether N-13)"
6,100 to 990,"CCCC[C@H]1C(=O)N2C[C@@H](O)C[C@@H]2C(=O)N[C@@H](CC(=O)O)C(=O)N[C@@H](C(C)C)C(=O)N(C)[C@@H](Cc2ccc(C)cc2)C(=O)N[C@@H](CCC(=O)O)C(=O)N2CCC[C@@H]2C(=O)N[C@@H](Cc2c[nH]c3ccccc23)C(=O)N[C@@H](Cc2ccc(O)cc2)C(=O)N[C@@H](CC(C)C)C(=O)N[C@H](C(=O)NCC(N)=O)CSCC(=O)N[C@@H](Cc2cc(F)c(F)c(F)c2)C(=O)N(C)[C@@H](Cc2ccccc2)C(=O)N1C [Example 10117] ({CH2CO}-[Phe(3,4,5-F3)][NMeF][NMeNle][dHyp]DV[NMePhe(4-Me)]E[dP]WYLCG-NH2; thioether N-13)"
7,1 to 9.9,"CCCC[C@H]1C(=O)N2C[C@@H](O)C[C@@H]2C(=O)N[C@@H](CC(=O)O)C(=O)N[C@@H](C(C)C)C(=O)N(C)[C@@H](Cc2ccc(F)cc2)C(=O)N[C@@H](CCCN)C(=O)N2CCC[C@@H]2C(=O)N[C@@H](Cc2c[nH]c3ccccc23)C(=O)N[C@@H](Cc2ccc(O)cc2)C(=O)N[C@@H](CC(C)C)C(=O)N[C@H](C(=O)NCC(N)=O)CSCC(=O)N[C@@H](Cc2cc(F)c(F)c(F)c2)C(=O)N(C)[C@@H](Cc2ccccc2)C(=O)N1C [Example 10118] ({CH2CO}-[Phe(3,4,5-F3)][NMeF][NMeNle][dHyp]DV[NMePhe(4-F)][Orn][dP]WYLCG-NH2; thioether N-13)"
8,100 to 990,"CCCC[C@H]1C(=O)N2C[C@@H](O)C[C@@H]2C(=O)N[C@@H](CC(=O)O)C(=O)N[C@@H](C(C)C)C(=O)N(C)[C@@H](Cc2ccc(C)cc2)C(=O)N[C@@H](CCCN)C(=O)N2CCC[C@@H]2C(=O)N[C@@H](Cc2c[nH]c3ccccc23)C(=O)N[C@@H](Cc2ccc(O)cc2)C(=O)N[C@@H](CC(C)C)C(=O)N[C@H](C(=O)NCC(N)=O)CSCC(=O)N[C@@H](Cc2cc(F)c(F)c(F)c2)C(=O)N(C)[C@@H](Cc2ccccc2)C(=O)N1C [Example 10119] ({CH2CO}-[Phe(3,4,5-F3)][NMeF][NMeNle][dHyp]DV[NMePhe(4-Me)][Orn][dP]WYLCG-NH2; thioether N-13)"
9,1 to 9.9,"CCCC[C@H]1C(=O)N2C[C@@H](O)C[C@@H]2C(=O)N[C@@H](CC(=O)O)C(=O)N[C@@H](C(C)C)C(=O)N(C)[C@@H](Cc2ccc(F)cc2)C(=O)N[C@@H](CCCN)C(=O)N2CCC[C@@H]2C(=O)N[C@@H](Cc2c[nH]c3ccccc23)C(=O)N[C@@H](Cc2ccc(O)cc2)C(=O)N[C@@H](CCCN)C(=O)N[C@H](C(=O)NCC(N)=O)CSCC(=O)N[C@@H](Cc2cc(F)c(F)c(F)c2)C(=O)N(C)[C@@H](Cc2ccccc2)C(=O)N1C [Example 10120] ({CH2CO}-[Phe(3,4,5-F3)][NMeF][NMeNle][dHyp]DV[NMePhe(4-F)][Orn][dP]WY[Orn]CG-NH2; thioether N-13)"
10,100 to 990,"CCCC[C@H]1C(=O)N2C[C@@H](O)C[C@@H]2C(=O)N[C@@H](CC(=O)O)C(=O)N[C@@H](C(C)C)C(=O)N(C)[C@@H](Cc2ccc(C)cc2)C(=O)N[C@@H](CCCN)C(=O)N2CCC[C@@H]2C(=O)N[C@@H](Cc2c[nH]c3ccccc23)C(=O)N[C@@H](Cc2ccc(O)cc2)C(=O)N[C@@H](CCCN)C(=O)N[C@H](C(=O)NCC(N)=O)CSCC(=O)N[C@@H](Cc2cc(F)c(F)c(F)c2)C(=O)N(C)[C@@H](Cc2ccccc2)C(=O)N1C [Example 10121] ({CH2CO}-[Phe(3,4,5-F3)][NMeF][NMeNle][dHyp]DV[NMePhe(4-Me)][Orn][dP]WY[Orn]CG-NH2; thioether N-13)"
11,1000 to 10000,CCCC[C@H]1NC(=O)[C@H](Cc2csc3ccccc23)NC(=O)[C@H](CO)NC(=O)[C@H](Cc2c[nH]c3ccccc23)OC(=O)[C@@H]2CCCN2C(=O)[C@H](CC(C)C)NC(=O)[C@H](Cc2cnc[nH]2)NC(=O)[C@@H]2CCCN2C(=O)[C@H](CC(N)=O)NC(=O)[C@H](C)N(C)C(=O)[C@H](Cc2ccc(O)cc2)NC(=O)CSCC(C(=O)NCC(N)=O)NC(=O)[C@H](CCCNC(=N)N)NC(=O)[C@H](CCCC)N(C)C1=O (stereo partly drawn) [Example 10122] ({CH2CO}-Y[NMeA]NPHLP[Lac(3-(indol-3-yl))]S[Bta][dNle][NMeNle]R[ξC]G-NH2; thioether N-14)
12,100 to 990,CCCC[C@H]1NC(=O)[C@H](Cc2csc3ccccc23)NC(=O)[C@H](CO)NC(=O)[C@H](Cc2c[nH]c3ccccc23)NC(=O)[C@@H]2C[C@@H](O)CN2C(=O)[C@H](CC(C)C)NC(=O)[C@H](Cc2cnc[nH]2)NC(=O)[C@@H]2CCCN2C(=O)[C@H](CC(N)=O)NC(=O)[C@H](C)N(C)C(=O)[C@H](Cc2ccc(O)cc2)NC(=O)CSCC(C(=O)NCC(N)=O)NC(=O)[C@H](CCCNC(=N)N)NC(=O)[C@H](CCCC)N(C)C1=O (stereo partly drawn) [Example 10123] ({CH2CO}-Y[NMeA]NPHL[Hyp]WS[Bta][dNle][NMeNle]R[ξC]G-NH2; thioether N-14)
13,1000 to 10000,CCCC[C@H]1NC(=O)[C@H](Cc2c[nH]c3ccccc23)NC(=O)[C@H](CO)NC(=O)[C@H](Cc2c[nH]c3ccccc23)NC(=O)[C@@H]2C[C@@H](O)CN2C(=O)[C@H](CCC(N)=O)NC(=O)[C@H](Cc2cnc[nH]2)NC(=O)[C@@H]2CCCN2C(=O)[C@H](CC(N)=O)NC(=O)[C@H](C)N(C)C(=O)[C@H](Cc2ccc(O)cc2)NC(=O)CSCC(C(=O)NCC(N)=O)NC(=O)[C@H](CCCNC(=N)N)NC(=O)[C@H](CCCC)N(C)C1=O (stereo partly drawn) [Example 10126] ({CH2CO}-Y[NMeA]NPHQ[Hyp]WSW[dNle][NMeNle]R[ξC]G-NH2; thioether N-14)
14,1000 to 10000,CCCC[C@H]1NC(=O)[C@H](Cc2c[nH]c3ccccc23)NC(=O)[C@H](CO)CC(=O)[C@H](Cc2c[nH]c3ccccc23)NC(=O)[C@@H]2C[C@@H](O)CN2C(=O)[C@H](CCC(N)=O)NC(=O)[C@H](Cc2cnc[nH]2)NC(=O)[C@@H]2CCCC2C(=O)[C@H](CC(N)=O)NC(=O)[C@H](C)N(C)C(=O)[C@H](Cc2ccc(O)cc2)NC(=O)CSCC(C(=O)NCC(N)=O)NC(=O)[C@H](CCC(=O)O)NC(=O)[C@H](CCCC)N(C)C1=O (stereo partly drawn) [Example 10127] ({CH2CO}-Y[NMeA][X2]HQ[Hyp][X3]W[dNle][NMeNle]E[ξC]G-NH2; thioether N-12)
15,1000 to 10000,CCCC[C@H]1NC(=O)[C@H](Cc2c[nH]c3ccccc23)NC(=O)[C@H](CO)NC(=O)[C@H](Cc2c[nH]c3ccccc23)NC(=O)[C@@H]2C[C@@H](O)CN2C(=O)[C@H](CCC(N)=O)NC(=O)[C@H](Cc2cnc[nH]2)NC(=O)[C@@H]2CCCN2C(=O)[C@H](CC(=O)O)NC(=O)[C@H](C)N(C)C(=O)[C@H](Cc2ccc(O)cc2)NC(=O)CSCC(C(=O)NCC(N)=O)NC(=O)[C@H](CCC(=O)O)NC(=O)[C@H](CCCC)N(C)C1=O (stereo partly drawn) [Example 10128] ({CH2CO}-Y[NMeA]DPHQ[Hyp]WSW[dNle][NMeNle]E[ξC]G-NH2; thioether N-14)
